{
  "source": "patent US9127103B2",
  "about": "“Polymerizable liquid crystal compound, a liquid crystal composition comprising the compound, and an optically anisotropic body comprising the same” (LG CHEM, LTD., priority 2012, dated 2015)",
  "key": {"[1]": {"experiment": "Measurement of birefringence (Δn) of retardation films by Axoscan", "type": "physicochemical", "settings": "retardation film of the compound; solvent TXB, TAC film; Δn calculated from retardation value and film thickness", "description": "The liquid crystal composition coated with a roll coating method on a TAC (triacetyl cellulose) film on which norbornene-based photoaligning material was coated, and dried at about 80° C. for 2 mins so as that the liquid crystal compound was aligned. And then, the retardation film was prepared by exposing the film to a non-polarized UV from a high pressure mercury lamp of 200 mW/cm^2 so as to fixing the oriented state of the liquid crystal.\nLike above method, the compositions including any one of compounds RM-02 to RM-08 instead of compound RM-01 were prepared, and the retardation films were prepared respectively by using the same.\nAnd, the retardation film was prepared substantially according to the same method as in Preparation Examples 1˜8, except that the compound of Chemical Formula 10 was used instead of compound RM-01.\nQuantitative retardation values of the retardation films according to Preparation Examples 1˜8, Comparative Preparation Examples 1˜2, and Reference Example were measured by using Axoscan (made by Axomatrix Co.). At this time, the thickness of the film was independently measured and Δn was calculated from the obtained values."}, "[2]": {"experiment": "Measurement of solubility of the compound in various solvents", "type": "physicochemical", "settings": "for Solubility TXB: TXB = Toluene:Xylene:Butyl cellosolve 7:2:1 (weight ratio); for Solubility TXB / Solubility Cyclopentanone / Solubility Toluene + Heated: 25 parts by weight per 100 parts of solution; for Solubility Toluene + Heated: room temperature solution heated about 10 secs with a heat gun; for Solubility Toluene: 25 parts by weight of compound per 100 parts by weight of total solution", "description": "At this time, the content of each compound in the solvent was 25 parts by weight per 100 parts by weight of total solution. In the following Table 1, when the compound was completely dissolved in the solvent and the solution was transparent, it was indicated by ‘◯’; when the compound was dissolved in the solvent but the solution was opaque, it was indicated by ‘Δ’; and when the compound was not dissolved at all, it was indicated by ‘×’. And, the term ‘heated’ in Table 1 means that the solution of room temperature including the compound was heated for about 10 secs by using a heat gun."}},
  "data": [
    {"smiles": "C=CC(=O)OCCCOc1ccc(C(=O)Oc2ccc(OC(=O)c3ccc(OCCCOC(=O)C=C)cc3)c(C)c2)cc1", "note": "[RM257, reference compound]", "values": [
      {"measurement": "Δn (Solvent, Film)", "setting": "[1]", "result": "0.12 (TXB, TAC)"},
      {"measurement": "Solubility TXB", "setting": "[2]", "result": "∘"},
      {"measurement": "Solubility Cyclopentanone", "setting": "[2]", "result": "∘"},
      {"measurement": "Solubility Toluene + Heated", "setting": "[2]", "result": "∘"}
    ]},
    {"smiles": "C=CC(=O)OCCCOc1ccc2cc(C(=O)Oc3ccc(OC(=O)c4ccc5cc(OCCCOC(=O)C=C)ccc5c4)c(C=O)c3)ccc2c1", "note": "[RM-01]", "values": [
      {"measurement": "Δn (Solvent, Film)", "setting": "[1]", "result": "0.17 (TXB, TAC)"},
      {"measurement": "Solubility TXB", "setting": "[2]", "result": "∘"},
      {"measurement": "Solubility Cyclopentanone", "setting": "[2]", "result": "∘"},
      {"measurement": "Solubility Toluene + Heated", "setting": "[2]", "result": "∘"}
    ]},
    {"smiles": "C=CC(=O)OCCCCCCOc1ccc2cc(C(=O)Oc3ccc(OC(=O)c4ccc5cc(OCCCCCCOC(=O)C=C)ccc5c4)c(C=O)c3)ccc2c1", "note": "[RM-02]", "values": [
      {"measurement": "Δn (Solvent, Film)", "setting": "[1]", "result": "0.18 (TXB, TAC)"},
      {"measurement": "Solubility TXB", "setting": "[2]", "result": "∘"},
      {"measurement": "Solubility Toluene + Heated", "setting": "[2]", "result": "∘"}
    ]},
    {"smiles": "C=CC(=O)OCCCOc1ccc2cc(C(=O)Oc3ccc(OC(=O)c4ccc5cc(OCCCOC(=O)C=C)ccc5c4)c([N+](=O)[O-])c3)ccc2c1", "note": "[RM-03]", "values": [
      {"measurement": "Δn (Solvent, Film)", "setting": "[1]", "result": "0.17 (TXB, TAC)"},
      {"measurement": "Solubility TXB", "setting": "[2]", "result": "∘"},
      {"measurement": "Solubility Cyclopentanone", "setting": "[2]", "result": "∘"},
      {"measurement": "Solubility Toluene + Heated", "setting": "[2]", "result": "∘"},
      {"measurement": "Solubility Toluene", "setting": "[2]", "result": "∘"}
    ]},
    {"smiles": "C=CC(=O)OCCCCCCOc1ccc2cc(C(=O)Oc3ccc(OC(=O)c4ccc5cc(OCCCCCCOC(=O)C=C)ccc5c4)c([N+](=O)[O-])c3)ccc2c1", "note": "[RM-04]", "values": [
      {"measurement": "Δn (Solvent, Film)", "setting": "[1]", "result": "0.20 (TXB, TAC)"},
      {"measurement": "Solubility TXB", "setting": "[2]", "result": "∘"},
      {"measurement": "Solubility Cyclopentanone", "setting": "[2]", "result": "∘"},
      {"measurement": "Solubility Toluene + Heated", "setting": "[2]", "result": "∘"}
    ]},
    {"smiles": "C=CC(=O)OCCCOc1ccc2cc(C(=O)Oc3ccc(OC(=O)c4ccc5cc(OCCCOC(=O)C=C)ccc5c4)c(S(C)(=O)=O)c3)ccc2c1", "note": "[RM-05]", "values": [
      {"measurement": "Δn (Solvent, Film)", "setting": "[1]", "result": "0.19 (TXB, TAC)"},
      {"measurement": "Solubility TXB", "setting": "[2]", "result": "∘"},
      {"measurement": "Solubility Cyclopentanone", "setting": "[2]", "result": "∘"},
      {"measurement": "Solubility Toluene + Heated", "setting": "[2]", "result": "∘"},
      {"measurement": "Solubility Toluene", "setting": "[2]", "result": "∘"}
    ]},
    {"smiles": "C=CC(=O)OCCCCCCOc1ccc2cc(C(=O)Oc3ccc(OC(=O)c4ccc5cc(OCCCCCCOC(=O)C=C)ccc5c4)c(S(C)(=O)=O)c3)ccc2c1", "note": "[RM-06]", "values": [
      {"measurement": "Δn (Solvent, Film)", "setting": "[1]", "result": "0.20 (TXB, TAC)"},
      {"measurement": "Solubility TXB", "setting": "[2]", "result": "∘"},
      {"measurement": "Solubility Cyclopentanone", "setting": "[2]", "result": "∘"},
      {"measurement": "Solubility Toluene + Heated", "setting": "[2]", "result": "∘"}
    ]},
    {"smiles": "C=CC(=O)OCCCOc1ccc2cc(C(=O)Oc3ccc(OC(=O)c4ccc5cc(OCCCOC(=O)C=C)ccc5c4)c(S(=O)(=O)CC)c3)ccc2c1", "note": "[RM-07]", "values": [
      {"measurement": "Δn (Solvent, Film)", "setting": "[1]", "result": "0.19 (TXB, TAC)"},
      {"measurement": "Solubility TXB", "setting": "[2]", "result": "∘"},
      {"measurement": "Solubility Cyclopentanone", "setting": "[2]", "result": "∘"},
      {"measurement": "Solubility Toluene + Heated", "setting": "[2]", "result": "∘"},
      {"measurement": "Solubility Toluene", "setting": "[2]", "result": "∘"}
    ]},
    {"smiles": "C=CC(=O)OCCCCCCOc1ccc2cc(C(=O)Oc3ccc(OC(=O)c4ccc5cc(OCCCCCCOC(=O)C=C)ccc5c4)c(S(=O)(=O)CC)c3)ccc2c1", "note": "[RM-08]", "values": [
      {"measurement": "Δn (Solvent, Film)", "setting": "[1]", "result": "0.22 (TXB, TAC)"},
      {"measurement": "Solubility TXB", "setting": "[2]", "result": "∘"},
      {"measurement": "Solubility Cyclopentanone", "setting": "[2]", "result": "∘"},
      {"measurement": "Solubility Toluene + Heated", "setting": "[2]", "result": "∘"}
    ]},
    {"smiles": "C=CC(=O)OCCCOc1ccc2cc(C(=O)Oc3ccc(OC(=O)c4ccc5cc(OCCCOC(=O)C=C)ccc5c4)cc3)ccc2c1", "note": "[RM-09, reference compound]", "values": [
      {"measurement": "Solubility in TXB mixed solvent", "setting": "[2]", "result": "not dissolved in TXB mixed solvent at all"},
      {"measurement": "Solubility in toluene", "setting": "[2]", "result": "not dissolved in toluene at all"},
      {"measurement": "Solubility in toluene with heating", "setting": "[2]", "result": "just opaque solution was obtained"}
    ]},
    {"smiles": "C=CC(=O)OCCCCCCOc1ccc2cc(C(=O)Oc3ccc(OC(=O)c4ccc5cc(OCCCCCCOC(=O)C=C)ccc5c4)cc3)ccc2c1", "note": "[RM-10, reference compound]", "values": [
      {"measurement": "Solubility in TXB mixed solvent", "setting": "[2]", "result": "not dissolved in TXB mixed solvent at all"},
      {"measurement": "Solubility in toluene", "setting": "[2]", "result": "not dissolved in toluene at all"},
      {"measurement": "Solubility in toluene with heating", "setting": "[2]", "result": "just opaque solution was obtained"}
    ]}
  ]
}
